Data: US11834680B2, “Single kidney cell-derived organoids” (Rutgers, The State University of New Jersey, priority 2017, dated 2023)

Legend:
[1] = test system: Nephrectomy-derived normal adjacent tissue (NAT) and RCC cells; assay: Organoid forming efficiency (OFE) of kidney cells in 2D stage I / 3D Matrigel stage II culture; type: cell-based, human
Text: The human kidney contains up to 2 million epithelial nephrons responsible for blood filtration. Regenerating the kidney requires the induction of the more than 20 distinct cell types required for excretion and the regulation of pH, and electrolyte and fluid balance. Herein is described the induction of progenitors for both collecting duct and nephrons via the directed differentiation of patient-derived normal and RCC cells derived from nephrectomy tissues. Under an IRB-approved protocol, nephrectomy specimens from high-risk RCC cases were collected and processed within 15 minutes of surgery. Areas containing tumor as deemed by the pathologist and normal adjacent tissue counterpart were microdissected. A 3D culture system fit for growth of kidney cells was first developed by isolating epithelial cells microdissected from primary RCC specimens. Qualified pathologists confirmed their renal origin from the corresponding H&E. Nephrectomy-derived normal adjacent tissue (NAT) and RCC cells were utilized to determine best conditions for generating organoids. A two-step methodology comprising a first phase of adult kidney stem cell enrichment, conducted in a 2D setting (stage I), followed by a second phase of organoid 3D growth obtained in pure matrigel chambers (stage II), was conducted. […] Stage I media included using either EGM2 or ADMED complete medium (with the addition of EGF, BFGF, IGF-1, VEGF, hydrocortisone, ascorbic acid, insulin, heparin, gentamicin, amphotericin-B, and 2% FBS).
Cells were placed in 3D droplet culture chambers in stage II complete media containing Matrigel, to mimic the basal lamina of the normal renal tissue, and growth factors in conditions that permits cellular self-organization of organoid forming cells. Kidney cells were embedded as single cells in 3D-well plates. Organoid formation was then followed microscopically daily for 2 weeks.

[2] = test system: cultured nephron progenitor cells; assay: Effect of activating Wnt signaling on kidney organoid formation, shape and size; type: cell-based, human
Method: The organoids generated from multiple patient samples had various phenotypes during the different times of 2D culture. A similar diversity in phenotypes was also detected in the 3D culture stage. Moreover, the organoids formed in 3D culture had both spherical or branching shapes. When […] (1 μM) was added to the media as a pulse for 12 h then media was replaced with fresh media without CHIR, branching tubular shaped organoids increased. In another group of experiments, the effects of addition of 1× B27 supplement were examined.
The Wnt signaling pathway is known to trigger the initiation of nephron progenitor cell differentiation. The effects of activating Wnt signaling in organoid studies was examined. Cultured 2D and 3D cells were treated with a GSK3 inhibitor CHIR99021 (CHIR), which activates the canonical Wnt signaling pathway. […] On the other hand, branching tubular shaped organoids increased.

[3] = cultured 2D and 3D cells treated

## heparin
[1]; addition to the culture media
  organoid forming efficiency (OFE): improved

## Insulin: culture medium supplement
[1]; addition to the culture media
  organoid forming efficiency (OFE): improved

## Cc1c[nH]c(-c2cnc(NCCNc3ccc(C#N)cn3)nc2-c2ccc(Cl)cc2Cl)n1 [CHIR99021]
[2]; 1 μM added to the media as a pulse for 12 h, then fresh media
  branching tubular shaped organoids: increased
[2]; [3]
  cell death: accompanied by cell death
  differentiation in cultured nephron progenitor cells: induced differentiation
  organoid size: smaller size organoids
[2]; cultured 2D and 3D cells treated, concentration not given
  branching tubular shaped organoids: increased

## IGF-1: Insulin Growth Factor 1, culture medium supplement
[1]; addition to the culture media
  organoid forming efficiency (OFE): improved
[1]; doubling the IGF-1 dose (2×) in culture
  organoid forming efficiency (OFE): did not increase

## VEGF
[1]; addition to the culture media
  organoid forming efficiency (OFE): improved
